Assay results taken from the supplement of paper PMC6045584.
± gives the standard deviation of the averaged measurements.

Tests used:
AFATINIB = compound: CN(C)C/C=C/C(=O)Nc1cc2c(Nc3ccc(F)c(Cl)c3)ncnc2cc1O[C@H]1CCOC1 [AFATINIB]; assay: surviving fraction relative to DMSO-only wells; higher = less growth inhibition; conditions: exposure time: 5 days
Procedure, shortened: (§1)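 Viability values are CellTiter-Glo luminescence readings, given as surviving fraction against the median of DMSO-only wells. The readings were taken after 10 minutes at room temperature, following five days of continuous exposure to inhibitors at 0.5, 1, 5, 10, 50, 100, 500 and 1000 nM that began 24 hours after log-phase tumour cell lines were seeded at 250–500 cells per well in 384-well plates. Every line was screened three times and kept only if replicate Pearson r >0.7 and median Z' >0.3.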

SAPACITABINE = compound: CCCCCCCCCCCCCCCC(=O)Nc1ccn([C@@H]2O[C@H](CO)[C@@H](O)[C@@H]2C#N)c(=O)n1 [SAPACITABINE]; assay: as above; conditions: exposure time: 5 days
Procedure, shortened: as §1

| Test System | surviving fraction (AFATINIB; 0.5 nM) | surviving fraction (AFATINIB; 1 nM) | surviving fraction (AFATINIB; 5 nM) | surviving fraction (AFATINIB; 10 nM) | surviving fraction (AFATINIB; 50 nM) | surviving fraction (AFATINIB; 100 nM) | surviving fraction (AFATINIB; 500 nM) | surviving fraction (AFATINIB; 1000 nM) | surviving fraction (SAPACITABINE; 0.5 nM) | surviving fraction (SAPACITABINE; 1 nM) | surviving fraction (SAPACITABINE; 5 nM) | surviving fraction (SAPACITABINE; 10 nM) | surviving fraction (SAPACITABINE; 50 nM) | surviving fraction (SAPACITABINE; 100 nM) | surviving fraction (SAPACITABINE; 500 nM) | surviving fraction (SAPACITABINE; 1000 nM) |
| --- | --- | --- | --- | --- | --- | --- | --- | --- | --- | --- | --- | --- | --- | --- | --- | --- |
| JURKAT HAEMATOPOIETIC AND LYMPHOID TISSUE | 1.07 ± 0.017 | 1.08 ± 0.025 | 1.07 ± 0.025 | 1.07 ± 0.02 | 1.03 ± 0.098 | 1.05 ± 0.023 | 0.779 ± 0.014 | 0.259 ± 0.043 | 0.944 ± 0.031 | 0.973 ± 0.03 | 0.52 ± 0.0059 | 0.245 ± 0.008 | 0.078 ± 0.0036 | 0.034 ± 0.001 | 0.0213 ± 0.00058 | 0.023 |
| KPD BONE | 0.964 ± 0.051 | 0.978 ± 0.045 | 1.04 ± 0.066 | 0.976 ± 0.051 | 1.08 ± 0.06 | 0.888 ± 0.034 | 0.65 ± 0.056 | 0.354 ± 0.014 | 0.887 ± 0.013 | 0.886 ± 0.043 | 0.977 ± 0.045 | 0.946 ± 0.1 | 0.926 ± 0.024 | 0.815 ± 0.013 | 0.52 ± 0.028 | 0.344 ± 0.017 |
| LM7 BONE | 1.02 ± 0.049 | 1 ± 0.14 | 1.02 ± 0.074 | 1.07 ± 0.026 | 1.02 ± 0.026 | 0.914 ± 0.091 | 0.443 ± 0.051 | 0.169 ± 0.013 | 0.703 ± 0.044 | 0.708 ± 0.036 | 0.761 ± 0.015 | 0.641 ± 0.077 | 0.599 ± 0.037 | 0.4143 ± 0.0032 | 0.191 ± 0.036 | 0.162 ± 0.021 |
| LNCAP PROSTATE | 1.03 ± 0.093 | 0.998 ± 0.083 | 0.995 ± 0.062 | 0.922 ± 0.073 | 0.892 ± 0.11 | 1.01 ± 0.069 | 0.854 ± 0.1 | 0.649 ± 0.051 | 1.04 ± 0.033 | 1.09 ± 0.059 | 0.998 ± 0.053 | 0.913 ± 0.031 | 0.51 ± 0.012 | 0.329 ± 0.035 | 0.208 ± 0.014 | 0.159 ± 0.012 |
| MCF7 BREAST | 0.944 ± 0.025 | 0.905 ± 0.028 | 0.955 ± 0.017 | 0.942 ± 0.032 | 1.01 ± 0.035 | 1.08 ± 0.053 | 0.986 ± 0.073 | 0.953 ± 0.023 | 0.826 ± 0.037 | 0.803 ± 0.02 | 0.807 ± 0.015 | 0.716 ± 0.022 | 0.923 ± 0.028 | 0.833 ± 0.046 | 0.705 ± 0.033 | 0.538 ± 0.0081 |
| MDAMB157 BREAST | 0.993 ± 0.14 | 0.975 ± 0.048 | 0.96 ± 0.09 | 0.976 ± 0.16 | 0.979 ± 0.069 | 0.944 ± 0.12 | 0.85 ± 0.097 | 0.526 ± 0.06 | 0.911 ± 0.034 | 0.859 ± 0.058 | 0.806 ± 0.077 | 0.755 ± 0.025 | 0.632 ± 0.069 | 0.619 ± 0.02 | 0.446 ± 0.02 | 0.306 ± 0.036 |
| MDAMB231 BREAST | 1.05 ± 0.026 | 1.05 ± 0.028 | 1.06 ± 0.037 | 1.05 ± 0.027 | 1.04 ± 0.03 | 0.995 ± 0.025 | 0.668 ± 0.013 | 0.335 ± 0.021 | 0.91 ± 0.016 | 0.919 ± 0.022 | 0.936 ± 0.031 | 0.927 ± 0.034 | 0.936 ± 0.043 | 0.882 ± 0.053 | 0.648 ± 0.03 | 0.516 ± 0.019 |
| MDAMB361 BREAST | 0.932 ± 0.059 | 0.796 ± 0.034 | 0.81 ± 0.041 | 0.799 ± 0.06 | 0.682 ± 0.088 | 0.629 ± 0.04 | 0.535 ± 0.02 | 0.459 ± 0.027 | 0.711 ± 0.096 | 0.624 ± 0.029 | 0.662 ± 0.06 | 0.648 ± 0.069 | 0.868 ± 0.097 | 0.771 ± 0.1 | 0.908 ± 0.093 | 0.872 ± 0.041 |
| MDAMB436 BREAST | 0.924 ± 0.014 | 0.974 ± 0.078 | 0.922 ± 0.05 | 0.905 ± 0.0097 | 0.996 ± 0.063 | 0.892 ± 0.035 | 0.763 ± 0.06 | 0.647 ± 0.029 | 0.861 ± 0.07 | 0.795 ± 0.08 | 0.75 ± 0.074 | 0.719 ± 0.075 | 0.561 ± 0.029 | 0.497 ± 0.053 | 0.445 ± 0.049 | 0.352 ± 0.013 |
| MDAMB453 BREAST | 1.08 ± 0.061 | 1 ± 0.045 | 1.05 ± 0.064 | 1.05 ± 0.029 | 0.777 ± 0.076 | 0.668 ± 0.091 | 0.576 ± 0.027 | 0.41 ± 0.026 | 0.988 ± 0.053 | 0.968 ± 0.053 | 1 ± 0.058 | 1.03 ± 0.07 | 1.01 ± 0.022 | 1.01 ± 0.067 | 0.641 ± 0.033 | 0.407 ± 0.03 |
| MFM223 BREAST | 1.13 ± 0.076 | 1.16 ± 0.11 | 1.13 ± 0.097 | 1.13 ± 0.031 | 1.11 ± 0.086 | 1.04 ± 0.1 | 0.803 ± 0.059 | 0.365 ± 0.021 | 0.839 ± 0.092 | 0.82 ± 0.11 | 0.83 ± 0.089 | 0.8 ± 0.045 | 0.933 ± 0.12 | 0.939 ± 0.026 | 0.903 ± 0.074 | 0.77 ± 0.1 |
| MG63 BONE | 1.02 ± 0.046 | 1.03 ± 0.023 | 1.08 ± 0.022 | 1.058 ± 0.0069 | 1.05 ± 0.059 | 1.08 ± 0.017 | 0.951 ± 0.04 | 0.831 ± 0.038 | 0.903 ± 0.027 | 0.898 ± 0.027 | 0.943 ± 0.021 | 0.9 ± 0.031 | 0.601 ± 0.014 | 0.357 ± 0.013 | 0.123 ± 0.019 | 0.217 ± 0.013 |
| MHM BONE | 1.022 ± 0.0067 | 1 ± 0.018 | 1.02 ± 0.016 | 1 ± 0.03 | 1.07 ± 0.028 | 1.03 ± 0.016 | 0.961 ± 0.041 | 0.883 ± 0.022 | 0.975 ± 0.036 | 0.97 ± 0.058 | 0.978 ± 0.034 | 0.996 ± 0.028 | 0.951 ± 0.027 | 0.789 ± 0.043 | 0.305 ± 0.012 | 0.262 ± 0.03 |
| NCIH441 LUNG | 1.15 ± 0.086 | 1.11 ± 0.042 | 1.1 ± 0.1 | 1.04 ± 0.04 | 1.03 ± 0.042 | 0.851 ± 0.11 | 0.686 ± 0.027 | 0.409 ± 0.017 | 1.042 ± 0.009 | 0.975 ± 0.077 | 1.02 ± 0.036 | 0.913 ± 0.034 | 0.53 ± 0.023 | 0.363 ± 0.051 | 0.34 ± 0.025 | 0.312 ± 0.023 |
| NOS1 BONE | 0.993 ± 0.2 | 0.997 ± 0.014 | 1.05 ± 0.066 | 0.947 ± 0.04 | 1.13 ± 0.11 | 0.983 ± 0.1 | 0.238 ± 0.019 | 0.096 ± 0.0027 | 0.853 ± 0.16 | 0.774 ± 0.081 | 0.938 ± 0.16 | 0.863 ± 0.062 | 0.968 ± 0.12 | 0.973 ± 0.13 | 0.811 ± 0.059 | 0.764 ± 0.14 |
| NY BONE | 0.991 ± 0.051 | 0.983 ± 0.013 | 1.02 ± 0.062 | 1.038 ± 0.008 | 1.03 ± 0.053 | 0.996 ± 0.017 | 0.683 ± 0.029 | 0.392 ± 0.017 | 0.923 ± 0.043 | 0.872 ± 0.042 | 0.911 ± 0.024 | 0.812 ± 0.026 | 0.368 ± 0.02 | 0.262 ± 0.011 | 0.133 ± 0.0087 | 0.147 ± 0.0076 |
| OS25HAL BONE | 0.966 ± 0.014 | 1.01 ± 0.018 | 1 ± 0.029 | 1 ± 0.044 | 1.03 ± 0.039 | 1.08 ± 0.013 | 1.02 ± 0.03 | 0.855 ± 0.085 | 0.868 ± 0.022 | 0.8983 ± 0.0076 | 0.834 ± 0.0066 | 0.855 ± 0.059 | 0.974 ± 0.036 | 0.925 ± 0.015 | 0.293 ± 0.019 | 0.15 ± 0.014 |
| OSHN BONE | 1.08 ± 0.03 | 1.07 ± 0.031 | 1.09 ± 0.042 | 1.07 ± 0.032 | 1.11 ± 0.032 | 1.11 ± 0.033 | 1.1 ± 0.031 | 1.06 ± 0.019 | 0.902 ± 0.034 | 0.917 ± 0.024 | 0.92 ± 0.013 | 0.891 ± 0.014 | 0.998 ± 0.02 | 0.928 ± 0.011 | 0.345 ± 0.032 | 0.158 ± 0.011 |
| RDES SOFT TISSUE | 1.33 ± 0.2 | 1.29 ± 0.15 | 1.17 ± 0.19 | 1.3 ± 0.31 | 0.988 ± 0.18 | 1.16 ± 0.19 | 1.13 ± 0.22 | 1.11 ± 0.019 | 0.706 ± 0.16 | 0.765 ± 0.047 | 0.717 ± 0.13 | 0.629 ± 0.12 | 0.919 ± 0.073 | 0.984 ± 0.034 | 0.779 ± 0.15 | 0.117 ± 0.052 |
